“And” between values parts separate entries of the source, which are not always exact repeats. Identical values can stand only once. Residues, ends and D or L forms follow the SMILES beside them. No end group written: not given here.
Target: T1, angiotensin I-converting enzyme (ACE) (Oryctolagus cuniculus, UniProt P12822)
T1 construct: purchased Sigma Chemical Co. (St. Louis, MO, USA)
T1 sequence (P12822 34-1310): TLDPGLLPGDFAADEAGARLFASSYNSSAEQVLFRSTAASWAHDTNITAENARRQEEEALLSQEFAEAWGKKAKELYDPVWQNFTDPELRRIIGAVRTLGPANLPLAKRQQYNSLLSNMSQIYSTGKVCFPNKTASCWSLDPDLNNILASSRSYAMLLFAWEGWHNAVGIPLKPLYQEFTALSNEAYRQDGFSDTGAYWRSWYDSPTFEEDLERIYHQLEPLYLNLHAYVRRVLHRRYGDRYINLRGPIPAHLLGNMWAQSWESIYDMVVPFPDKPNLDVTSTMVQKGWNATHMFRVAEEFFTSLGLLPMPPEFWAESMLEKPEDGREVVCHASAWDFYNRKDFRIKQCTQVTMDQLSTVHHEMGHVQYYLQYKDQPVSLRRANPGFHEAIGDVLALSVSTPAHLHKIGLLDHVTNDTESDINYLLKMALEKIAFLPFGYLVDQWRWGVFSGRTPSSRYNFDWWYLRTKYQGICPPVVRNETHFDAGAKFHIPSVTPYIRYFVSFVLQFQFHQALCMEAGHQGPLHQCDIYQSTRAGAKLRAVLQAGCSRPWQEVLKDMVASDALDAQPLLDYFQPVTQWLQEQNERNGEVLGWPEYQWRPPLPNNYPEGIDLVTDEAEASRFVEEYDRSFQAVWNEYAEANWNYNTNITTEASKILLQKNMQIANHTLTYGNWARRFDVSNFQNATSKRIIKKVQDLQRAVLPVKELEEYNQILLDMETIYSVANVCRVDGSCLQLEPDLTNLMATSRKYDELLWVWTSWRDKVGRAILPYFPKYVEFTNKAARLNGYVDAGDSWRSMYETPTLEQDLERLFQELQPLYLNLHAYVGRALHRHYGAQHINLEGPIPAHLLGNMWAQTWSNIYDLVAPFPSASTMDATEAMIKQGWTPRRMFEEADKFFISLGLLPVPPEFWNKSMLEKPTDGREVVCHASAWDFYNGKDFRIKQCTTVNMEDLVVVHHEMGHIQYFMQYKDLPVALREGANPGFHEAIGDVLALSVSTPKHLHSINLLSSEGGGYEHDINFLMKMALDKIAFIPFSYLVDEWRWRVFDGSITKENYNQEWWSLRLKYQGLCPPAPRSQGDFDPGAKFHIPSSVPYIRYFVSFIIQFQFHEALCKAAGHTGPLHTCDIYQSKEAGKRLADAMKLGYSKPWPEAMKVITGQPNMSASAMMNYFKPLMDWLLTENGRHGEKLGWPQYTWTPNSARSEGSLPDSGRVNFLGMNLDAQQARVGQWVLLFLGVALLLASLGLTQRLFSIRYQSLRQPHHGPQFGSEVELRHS
Assay: ACE inhibitory activity assay (HHL substrate, HPLC detection of hippuric acid)
Format: biochemical
Conditions: chemically synthesized peptides
Protocol: ACE inhibitory activity was measured as previously described by Cushman and Cheung with minor modifications. A 10 μL sample solution (50 mM borate, pH 8.3) was added to 30 μL 2.5 mM HHL solution and incubated for 5 min at 37 °C. Subsequently, 20 μL of 0.1 U/mL ACE solution (50 mM borate, 0.3 M NaCl, pH 8.3) was added and the mixture was incubated at 37 °C for 60 min. The reaction was terminated by adding 70 μL of 1 M HCl. A blank sample of buffer alone was used as a negative control. Samples were filtered through a 0.45 μm nylon syringe filter and then separated on a C18 column (4.6 mm × 150 mm, 5 μm). HA and HHL were detected by absorbance at 228 nm. The column was eluted at a flow rate of 0.8 mL/min using a mobile phase composed of (A) 0.05% TFA in water and (B) 0.05% TFA in acetonitrile. The elution was carried out using a gradient of 10%–60% B in the first 10 min followed by 60%–10% B in the next 2 min. HA was quantified by integration of peak areas (A). Percent ACE inhibition was calculated according to the following equation: [drawing 1] (1)
The ACE inhibitory peptides identified by nano-LC MS/MS were synthesized using the solid phase method and purified by HPLC by GenScript Corporation (Nanjing, China). The ACE inhibitory activity of these chemically synthesized peptides was determined as described in Section 3.3.

Compound	IC50
CC(C)C[C@H](NC(=O)[C@H](C)NC(=O)[C@@H](N)CC(C)C)C(=O)N[C@@H](CCCNC(=N)N)C(=O)O [LALR] (H-LALR-OH)	1270 µM
CC(C)C[C@H](N)C(=O)N[C@@H](CCC(=O)O)C(=O)NCC(=O)N[C@@H](CCCNC(=N)N)C(=O)O [LEGR] (H-LEGR-OH)	1090 µM
CC(C)C[C@H](NC(=O)[C@H](CCCCN)NC(=O)[C@@H](N)CC(C)C)C(=O)N1CCC[C@H]1C(=O)O [LKLP] (H-LKLP-OH)	367 µM
CC(C)C[C@H](NC(=O)[C@H](CC(C)C)NC(=O)[C@@H](N)CC(C)C)C(=O)N[C@@H](CCCNC(=N)N)C(=O)O [LLLR] (H-LLLR-OH)	1000 µM
CC(C)C[C@H](NC(=O)[C@@H](N)CC(C)C)C(=O)N[C@@H](CCCNC(=N)N)C(=O)N[C@@H](Cc1c[nH]cn1)C(=O)O [LLRH] (H-LLRH-OH)	308 µM
NC(N)=NCCC[C@H](NC(=O)[C@@H](N)CCCN=C(N)N)C(=O)O [RR] (H-Arg-Arg-OH)	482 µM
LGALPF [LGALPF]	2690 µM
LGECGGR [LGECGGR]	233 µM
LLMPK [LLMPK]	686 µM
VVCVPW [VVCVPW]	4.07 µM and 4.1 µM

More lines, in order of falling IC50, values ahead:

IC50	Compound
222 µM	LLHSPP [LLHSPP]
192 µM	HFEAMR [HFEAMR]
158 µM	CC(C)C[C@H](N)C(=O)N[C@@H](CCCNC(=N)N)C(=O)O [LR]
100 µM	VFKAF [VFKAF]
92.4 µM	MPFLFK [MPFLFK]
77.9 µM	N=C(N)NCCC[C@H](NC(=O)[C@H](CCCCN)NC(=O)[C@@H](N)Cc1ccccc1)C(=O)O [FKR] (H-Phe-Lys-Arg-OH)
70.2 µM	LFVAAP [LFVAAP]
59.8 µM	LASPTM [LASPTM]
41.3 µM	PLFPK [PLFPK]
31.8 µM	CC(C)C[C@H](N)C(=O)N[C@@H](Cc1ccccc1)C(=O)N[C@@H](CCCNC(=N)N)C(=O)O [LFR] (H-Leu-Phe-Arg-OH)
24.6 µM	CC(C)C[C@H](N)C(=O)N[C@H](C(=O)N[C@@H](CCCCN)C(=O)N[C@@H](Cc1ccccc1)C(=O)O)C(C)C [LVKF] (H-LVKF-OH)
17.5 µM	LYHVL [LYHVL]
10.4 µM	CC(C)[C@H](N)C(=O)N[C@@H](CCCCN)C(=O)N[C@@H](Cc1ccccc1)C(=O)O [VKF] (H-Val-Lys-Phe-OH)

From publication PMC4113806, “Characterization of ACE Inhibitory Peptides from Mactra veneriformis Hydrolysate by Nano-Liquid Chromatography Electrospray Ionization Mass Spectrometry (Nano-LC-ESI-MS) and Molecular Docking” (Marine Drugs, 2014)
